How the values were obtained:
[1] = Dosing of screening agents, CellTiter-Glo cell viability assay; type: cell-based; details: human, WT KBM7 cells
Experimental: (§1) Dosing of screening agents: To determine the appropriate dose of 6-TG and etoposide for screening in KBM7 and HL60 cells, cells were seeded in 96-well tissue culture plates at 4000 cells/well in 200 μL of media and were treated in triplicate with varying concentrations of 6-TG and etoposide. A CellTiter-Glo cell viability assay was performed after 4 days to assess drug toxicity. Concentrations at which the viability of WT KBM7 and HL60 cells fell below 5% were chosen.
Pooled screening: In all screens, 90 million target cells were transduced with viral sub pools and selected with blasticidin 24 hours after infection for 3 days. For the 6-TG screen, Cas9-KBM7 cells were cultured in media containing 400 nM 6-TG. For screens with etoposide, Cas9-KBM7 and Cas9-HL60 cells were cultured in media containing 130 nM and 200 nM of etoposide, respectively. Cultures of untreated Cas9-KBM7 and Cas9-HL60 cells were also maintained in parallel. All cells were passaged every 3 days, and after 12 days, cells were harvested for genomic DNA extraction. In negative selection screens, 10 million cells were harvested for genomic DNA extraction 24 hours after infection. The remaining cells were maintained for 12 doublings, before being harvested for genomic DNA extraction.

[2] = CellTiter-Glo cell viability assay in HL60 cells; type: cell-based, human; details: human, WT HL60 cells; at the concentration chosen for screening (200 nM etoposide); 4 days
Experimental: (§2) Viability assay: Cells were seeded in 96-well tissue culture plates at 4000 cells/well in 200 μL of media under various treatment conditions. After 3 days, 35 μL of CellTiter-Glo reagent (Promega) was added to each well, mixed for 5 minutes, and the luminescence was read on the SpectraMax M5 Luminometer (Molecular Devices). All experiments were performed in triplicate.
as §1
(§3) Pooled screening: In all screens, 90 million target cells were transduced with viral sub pools and selected with blasticidin 24 hours after infection for 3 days. For the 6-TG screen, Cas9-KBM7 cells were cultured in media containing 400 nM 6-TG. For screens with etoposide, Cas9-KBM7 and Cas9-HL60 cells were cultured in media containing 130 nM and 200 nM of etoposide, respectively. Cultures of untreated Cas9-KBM7 and Cas9-HL60 cells were also maintained in parallel. […]

HL60 cells = experiment: CellTiter-Glo cell viability assay in HL60 cells; type: cell-based, human; details: versus parental or sgAAVS1-modified HL60 cells; viability by cellular ATP
Experimental: as §2, §1, §3

SMILES | viability at 4 days, 400 nM ([1]; at the concentration chosen for screening (400 nM 6-TG)) [%] | viability at 4 days, 130 nM ([1]; at the concentration chosen for screening (130 nM etoposide)) [%] | viability at 4 days, 200 nM [2] [%] | resistance to etoposide of isogenic HL60 lines with sgRNAs against TOP2A and CDK6 (HL60 cells)
Nc1nc2nc[nH]c2c(=S)[nH]1 [6-TG, 6-thioguanine] | < 5 | – | – | –
COc1cc([C@@H]2c3cc4c(cc3[C@@H](O[C@@H]3O[C@@H]5CO[C@@H](C)O[C@H]5[C@H](O)[C@H]3O)[C@H]3COC(=O)[C@H]23)OCO4)cc(OC)c1O [etoposide] | – | < 5 | < 5 | much more resistant
